Assay results from US20250163119A1, “COMPOUNDS FOR THE TREATMENT OF DIABETES OR OBESITY” (Eli Lilly and Company, priority 2023, published 2025).
Values joined by “and” are separate entries in the source; they are usually repeats but may differ in a detail not shown here. Equal values may be shown once. *1 amine or outer side, *2 acyl side, *3 side chain or, on linkers, in order; H or OH if unused. Side-chain parts run from the residue outwards. [ ]: non-standard residue; d: D form. The star is where a group is joined. C20 diacid = O=C(O)CCCCCCCCCCCCCCCCCCC(=O)*; γGlu = O=C(O)[C@H](CCC(=O)[*:2])N[*:1]; εLys = N[C@@H](CCCCN[*:1])C(=O)[*:2]; αMeL = CC(C)C[C@](C)(N)C(=O)O; AEEA = NCCOCCOCC(=O)O; Aib = CC(C)(N)C(=O)O

Legend:
[1] = Pharmacokinetics in Sprague Dawley rats, single subcutaneous or intravenous dose (incl. 10, 30, 100 nmol/kg dose response); assay type: in vivo; details: for Tmax: read-out: Tmax
[2] = Pharmacokinetics in CD-1 mice, single 100 nmol/kg subcutaneous dose; assay type: in vivo; details: mouse, plasma, sc, male CD-1 mice, mean
Procedure: Plasma concentrations of compounds were determined by LC/MS methods. For each assay, the compound and an internal standard (IS), were extracted from 100% mouse, rat, pig, or monkey plasma (70 μL) using Isopropanol-Methanol. Two distinct layers were formed upon centrifugation with the compound and the IS located in the supernatant layer. An aliquot of the supernatant (150 μL) was transferred to a Waters Sirocco Protein Precipitation Plate. The supernatant was eluted using a positive pressure manifold. The supernatant was mixed with 100-2 Water-Formic acid (400 μL) in a pretreated Sep-Pak tC18 SPE plate and eluted to waste. The peptide and IS were eluted with Acetonitrile-Formic acid (100 μL) in 2 steps (50 μL each step). The elution (40 μL) from SPE plate was mixed with diluent solution (1.875 μL 5× invitrosol and 3.125 μL 1% formic acid in water, 80 μL). A final sample (10 μl) was loaded onto a Xselect CSH C18 IS column (3.5 μm 2.1×20 mm). The column effluent was directed into a Thermo Fisher Scientific Orbitrap (Exploris 240) mass spectrometer for detection and quantitation.
Male CD-1 mice were administered a single subcutaneous dose (100 nmol/kg) of compound in 40 mM Tris-HCl 5% D-mannitol (pH 8) at a volume of 5 mL/kg. Blood was collected at 6, 24, 48, 96, 168, 240, 288, and 336 hours postdose for pharmacokinetic characterization.

[3] = test system: MHC-II presented peptides on human dendritic cells; test: MAPPS assay (MHC-Associated Peptide Proteomics); assay type: cell-based
Method in brief: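 Peptides eluted from anti-MHC-II immunoprecipitates of day-6 DC lysates were sequenced by MS, mapped onto the parent test molecule, and scored as percentage of donors presenting each region. DCs derived from donor CD14+ cells (IL-4, GM-CSF) received test molecules on day 4, then LPS maturation on day 5.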

[4] = Pharmacokinetics in Yucatan mini-pigs, single subcutaneous or intravenous dose; assay type: in vivo; details: for Tmax: read-out: Tmax
Method in brief: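 Male mini-pigs received one SC or IV dose (19 or 99 nmol/kg) in 40 mM Tris-HCl 5% D-mannitol, pH 8. Blood sampled 0.083 (IV only) to 504 h postdose. Plasma levels measured by LC/MS after extraction and SPE, Orbitrap detection.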

[5] = dose response, single subcutaneous dose 10 nmol/kg, male Sprague Dawley rats, individual animal
[6] = dose response, single subcutaneous dose 30 nmol/kg, male Sprague Dawley rats, individual animal
[7] = dose response, single subcutaneous dose 100 nmol/kg, male Sprague Dawley rats, individual animal
[8] = male Sprague Dawley rats, single intravenous dose 187 nmol/kg, individual animal
[9] = male, Sprague Dawley, rat, plasma, iv, 187 nmol/kg, single intravenous dose 187 nmol/kg, Mean
[10] = male, Sprague Dawley, rat, plasma, sc, 10 nmol/kg, dose response, single subcutaneous dose 10 nmol/kg, individual animal
[11] = male, Sprague Dawley, rat, plasma, sc, 10 nmol/kg, dose response, single subcutaneous dose 10 nmol/kg, mean
[12] = male, Sprague Dawley, rat, plasma, sc, 30 nmol/kg, dose response, single subcutaneous dose 30 nmol/kg, individual animal
[13] = male, Sprague Dawley, rat, plasma, sc, 30 nmol/kg, dose response, single subcutaneous dose 30 nmol/kg, mean
[14] = male, Sprague Dawley, rat, plasma, sc, 100 nmol/kg, dose response, single subcutaneous dose 100 nmol/kg, individual animal
[15] = male, Sprague Dawley, rat, plasma, sc, 100 nmol/kg, dose response, single subcutaneous dose 100 nmol/kg, mean
[16] = male, Sprague Dawley, rat, plasma, sc, 187 nmol/kg, single subcutaneous dose 187 nmol/kg, individual animal
[17] = male, Sprague Dawley, rat, plasma, sc, 187 nmol/kg, single subcutaneous dose 187 nmol/kg, mean
[18] = single subcutaneous dose 187 nmol/kg, male Sprague Dawley rats, individual animal
[19] = male Yucatan pigs, single subcutaneous dose 19 nmol/kg, individual animal
[20] = male, Yucatan mini-pig, minipig, plasma, iv, 19 nmol/kg, single intravenous dose 19 nmol/kg, individual animal
[21] = male, Yucatan mini-pig, minipig, plasma, iv, 19 nmol/kg, single intravenous dose 19 nmol/kg, mean
[22] = male, Yucatan mini-pig, minipig, plasma, sc, 19 nmol/kg, single subcutaneous dose 19 nmol/kg, Mean
[23] = male, Yucatan mini-pig, minipig, plasma, sc, 19 nmol/kg, single subcutaneous dose 19 nmol/kg, individual animal
[24] = single intravenous dose 19 nmol/kg, male Yucatan pigs, individual animal

## Ac-GSPSIVTS[αMeL]DVPT[Aib][αMeL]LQKILEQERAEKARQQAK([γGlu-AEEA-εLys-C20 diacid])EAAEILAQV-NH2 [SEQ ID NO: 1, Ac-GSPSIVTS αMeL DVPT Aib αMeL LQKILEQERAEKARQQAK(γE-(2-[2-(2-Amino-ethoxy)-ethoxy]-acetyl)-ϵK-CO-(CH2)18-CO2H)EAAEILAQV-NH2]
[1]; [5]
  AUC0-inf: 2.07 µM·h and 1.86 µM·h and 2.21 µM·h
  CL/F: 6.10 mL/h/kg and 4.63 mL/h/kg
  Cmax: 0.0377 µM and 0.0264 µM and 0.0385 µM
  T1/2: 41.7 h and 31.1 h
[1]; [6]
  AUC0-inf: 6.42 µM·h and 6.92 µM·h and 7.69 µM·h
  CL/F: 4.55 mL/h/kg and 4.19 mL/h/kg
  Cmax: 0.102 µM and 0.11 µM and 0.104 µM
  T1/2: 37.1 h and 36.1 h
[1]; [7]
  AUC0-inf: 18.8 µM·h and 21.1 µM·h and 20.7 µM·h
  CL/F: 4.86 mL/h/kg and 4.91 mL/h/kg
  Cmax: 0.348 µM and 0.332 µM and 0.321 µM
  T1/2: 26.0 h and 24.6 h
[1]; [8]
  AUC0-inf: 111 µM·h and 91.9 µM·h and 77.3 µM·h
  C0: 5.97 µM and 6.95 µM and 2.4 µM
  CL: 2.04 mL/h/kg and 2.42 mL/h/kg
  T1/2: 47.5 h and 23.2 h and 31.0 h
[1]; [9]
  clearance: 2.05 mL/h/kg
  half-life: 33.9 h
[1]; male, Sprague Dawley, rat, plasma, iv, 187 nmol/kg, single intravenous dose 187 nmol/kg, individual animal
  clearance: 1.69 mL/h/kg
[1]; [10]
  half-life: 26 h
  Tmax: 24 h
[1]; male, Sprague Dawley, rat, plasma, sc, 10 nmol/kg, dose response, single subcutaneous dose 10 nmol/kg, individual animal, read-out: CL/F (converted)
  CL/F: 5.1 mL/h/kg
[1]; [11]
  half-life: 32.9 h
  Tmax: 24 h
[1]; male, Sprague Dawley, rat, plasma, sc, 10 nmol/kg, dose response, single subcutaneous dose 10 nmol/kg, mean, read-out: CL/F (converted)
  CL/F: 5.28 mL/h/kg
[1]; [12]
  half-life: 31.5 h
  Tmax: 24 h
[1]; male, Sprague Dawley, rat, plasma, sc, 30 nmol/kg, dose response, single subcutaneous dose 30 nmol/kg, individual animal, read-out: CL/F (converted)
  CL/F: 4.8 mL/h/kg
[1]; [13]
  half-life: 34.9 h
  Tmax: 32 h
[1]; male, Sprague Dawley, rat, plasma, sc, 30 nmol/kg, dose response, single subcutaneous dose 30 nmol/kg, mean, read-out: CL/F (converted)
  CL/F: 4.51 mL/h/kg
[1]; [14]
  half-life: 30.8 h
  Tmax: 24 h
[1]; male, Sprague Dawley, rat, plasma, sc, 100 nmol/kg, dose response, single subcutaneous dose 100 nmol/kg, individual animal, read-out: CL/F (converted)
  CL/F: 5.46 mL/h/kg
[1]; [15]
  half-life: 27.1 h
  Tmax: 24 h
[1]; male, Sprague Dawley, rat, plasma, sc, 100 nmol/kg, dose response, single subcutaneous dose 100 nmol/kg, mean, read-out: CL/F (converted)
  CL/F: 5.08 mL/h/kg
[1]; [16]
  half-life: 37.7 h
  Tmax: 24 h
[1]; male, Sprague Dawley, rat, plasma, sc, 187 nmol/kg, single subcutaneous dose 187 nmol/kg, individual animal, read-out: CL/F (converted)
  CL/F: 3.67 mL/h/kg
[1]; [17]
  half-life: 35.7 h
  Tmax: 24 h
[1]; male, Sprague Dawley, rat, plasma, sc, 187 nmol/kg, single subcutaneous dose 187 nmol/kg, mean, read-out: CL/F (converted)
  CL/F: 4.07 mL/h/kg
[1]; rat, plasma, sc, dose response, single subcutaneous dose 10 nmol/kg, male Sprague Dawley rats, mean, read-out: AUC0-inf
  AUC0-inf: 2.05 µM·h
[1]; rat, plasma, sc, dose response, single subcutaneous dose 10 nmol/kg, male Sprague Dawley rats, mean, read-out: Cmax
  Cmax: 0.0342 µM
[1]; rat, plasma, sc, dose response, single subcutaneous dose 30 nmol/kg, male Sprague Dawley rats, mean, read-out: AUC0-inf
  AUC0-inf: 7.01 µM·h
[1]; rat, plasma, sc, dose response, single subcutaneous dose 30 nmol/kg, male Sprague Dawley rats, mean, read-out: Cmax
  Cmax: 0.105 µM
[1]; rat, plasma, sc, dose response, single subcutaneous dose 100 nmol/kg, male Sprague Dawley rats, mean, read-out: AUC0-inf
  AUC0-inf: 20.2 µM·h
[1]; rat, plasma, sc, dose response, single subcutaneous dose 100 nmol/kg, male Sprague Dawley rats, mean, read-out: Cmax
  Cmax: 0.334 µM
[1]; rat, plasma, sc, single subcutaneous dose 187 nmol/kg, male Sprague Dawley rats, mean, read-out: AUC0-inf
  AUC0-inf: 49 µM·h
[1]; rat, plasma, sc, single subcutaneous dose 187 nmol/kg, male Sprague Dawley rats, mean, read-out: Cmax
  Cmax: 0.657 µM
[1]; rat, plasma, male Sprague Dawley rats, single intravenous dose 187 nmol/kg, Mean, read-out: AUC0-inf
  AUC0-inf: 93.4 µM·h
[1]; rat, plasma, male Sprague Dawley rats, single intravenous dose 187 nmol/kg, Mean, read-out: C0
  C0: 5.11 µM
[1]; [18]
  AUC0-inf: 53.9 µM·h and 41.2 µM·h and 51.8 µM·h
  CL/F: 4.77 mL/h/kg and 3.77 mL/h/kg
  Cmax: 0.804 µM and 0.511 µM and 0.657 µM
  T1/2: 38.2 h and 31.2 h
[2]
  AUC0-inf: 25.7 µM·h
  CL/F: 3.94 mL/h/kg
  Cmax: 0.327 µM
  Tmax: 24 h
  half-life: 22.8 h
[3]; donors displaying MHC-II peptides / donors tested
  MAPPS Assay >10 donors with diverse MHC: 3/20
[3]; human dendritic cells from normal donors
  peptides displayed on MHC-II complexes: at least one peptide cluster on MHC-II complexes in a subset of donors
[3]; in the MAPPs assay and/or the T cell proliferation assay
  immunogenicity compared with SEQ ID NO:54: substantial improvements in immunogenicity over a compound comprising SEQ ID NO:54
[3]; percentage of donors displaying MHC-II peptides
  MAPPS Assay >10 donors with diverse MHC: 15%
[4]; Yucatan mini-pig, minipig, plasma, sc, male Yucatan pigs, single subcutaneous dose 19 nmol/kg, Mean, read-out: AUC0-inf
  AUC0-inf: 17.8 µM·h
[4]; Yucatan mini-pig, minipig, plasma, sc, male Yucatan pigs, single subcutaneous dose 19 nmol/kg, Mean, read-out: Cmax
  Cmax: 0.147 µM
[4]; [19]
  AUC0-inf: 22.4 µM·h and 13.1 µM·h
  CL/F: 1.46 mL/h/kg
  Cmax: 0.171 µM and 0.122 µM
  T1/2: 60.2 h
[4]; [20]
  clearance: 0.583 mL/h/kg
  half-life: 87 h
[4]; [21]
  clearance: 0.755 mL/h/kg
  half-life: 71.5 h
[4]; [22]
  half-life: 75.9 h
  Tmax: 6 h
[4]; male, Yucatan mini-pig, minipig, plasma, sc, 19 nmol/kg, single subcutaneous dose 19 nmol/kg, Mean, read-out: CL/F (converted)
  CL/F: 1.15 mL/h/kg
[4]; [23]
  half-life: 91.6 h
  Tmax: 6 h
[4]; male, Yucatan mini-pig, minipig, plasma, sc, 19 nmol/kg, single subcutaneous dose 19 nmol/kg, individual animal, read-out: CL/F (converted)
  CL/F: 0.848 mL/h/kg
[4]; minipig, plasma, single intravenous dose 19 nmol/kg, male Yucatan pigs, mean, read-out: AUC0-inf
  AUC0-inf: 26.2 µM·h
[4]; minipig, plasma, single intravenous dose 19 nmol/kg, male Yucatan pigs, mean, read-out: C0
  C0: 0.619 µM
[4]; [24]
  AUC0-inf: 32.1 µM·h and 20.2 µM·h
  C0: 0.591 µM and 0.646 µM
  CL: 0.927 mL/h/kg
  T1/2: 55.9 h
